Experimental data published in publication PMC5773577, “Novel Miniature Membrane Active Lipopeptidomimetics against Planktonic and Biofilm Embedded Methicillin-Resistant Staphylococcus aureus” (Scientific Reports, 2018).
≈ marks a conversion by molar mass, not a printed value. Like-named read-outs stand apart in the source and are kept apart here.

What was measured:
[1] = test system: E. faecalis (ATCC 29212); assay: microbe, parasite or virus in culture; format: cell-based; conditions: Enterococcus faecalis, ATCC29212, MHB, 2–5 × 10^5 CFU/mL, 16–18 h, 37 °C, read-out: Minimum inhibitory concentration, MIC
Method: The antibacterial activity was evaluated as MIC using slight modifications to a serial broth micro dilution method as reported previously[66],[67]. Briefly, to each treatment well of the 96-well plate (Corning Incorporated, USA) 10 μL of peptidomimetic/antibiotic was added and subsequently diluted serial 2-fold in 0.2% BSA (in 0.01% acetic acid). Then to each well of the first 11 columns 100 μL of mid-log phase bacterial suspension in MHB medium was added to get 2–5 × 10^5 CFU/mL. Cultures without test peptidomimetics/antibiotics were used as growth control. Uninoculated MHB medium was used as negative control. The microtitre plates were incubated overnight with agitation (180 rpm) at 37 °C. After 16–18 h incubation, absorbance was read at 600 nm using an ELISA plate reader (Molecular Devices, Sunnyvale, CA, USA). The experiments were carried out in duplicate on at least three different days.

[2] = test system: MRSA ATCC 33591; assay: microbe, parasite or virus in culture; format: cell-based, Staphylococcus aureus; conditions: Staphylococcus aureus, MRSA ATCC 33591, read-out: Minimum inhibitory concentration, MIC
Method: An initial inoculum of mid-log phase 10^7 CFU/mL was used and MIC experiment was performed as described earlier. For serum/plasma stability assay a method as described previously was used with slight modifications. Briefly, 50 μL MHB medium containing desired concentration of test peptidomimetics was incubated with 50 µL mice plasma/fetal bovine serum for 3 h at 37 °C. After incubation, a 10 μL aliquot was taken out for MIC determination as described above. For the experiment, mid-log phase 2–5 × 10^5 CFU/mL were used as initial inoculum. For the growth control wells, an equivalent amount of plasma/FBS in the medium was also added to evaluate their effect on the viability of cells. A slight decrease in OD600 of cells incubated with mice plasma was observed compared to untreated growth control in MHB alone. The experiments were repeated on two different days and reproducible MIC values were observed.

[3] = test system: MRSA ATCC 33591; assay: Membrane permeabilization assay, calcein-AM dye release, flow cytometry; format: cell-based, Staphylococcus aureus; conditions: PBS, 37 °C, mean ± S.D., two days
Method: To assess the effect of designed peptidomimetics on membrane integrity of MRSA ATCC 33591 strain a calcein-AM dye release experiment was performed using the protocol described previously with slight modifications. Briefly, exponential phase MRSA ATCC 33591 culture was prepared in MHB medium as mentioned earlier and adjusted to OD600 = 1 (~10^9 CFU/mL) in PBS (10 mM sodium phosphate, 150 mM NaCl, pH 7.4). Thereafter, the cells were incubated at 37 °C with calcein-AM (2 μg/mL) in 10% MHB medium for 2 h. The calcein-loaded cells were washed once and re-suspended in PBS to OD600 = 0.5 (~10^8 CFU/mL). […] Subsequently, calcein fluorescence was measured via flow cytometry (Becton Dickinson (BD) FACS verse, San Jose, CA) with excitation and emission wavelengths of 488 nm and 530 ± 30 nm, respectively. For each sample, 10,000 cells were acquired. As a positive control, melittin (10 μM) was assayed under identical conditions. The experiment was repeated on two different days and mean ± S.D. is presented here. Corresponding to leakage a viability assay at 4 × MIC of respective test agents was also performed by incubating samples for 2 h at 37 °C and plating the diluted aliquots on BHI agar plates.

[4] = test system: MRSA ATCC 33591; assay: Resistance development over 17 serial passages at sub-MIC; format: cell-based, Staphylococcus aureus; conditions: at the 11th passage, constant up to the 17th passage
Method: For the experiment, a method as described previously was used with slight modifications. Briefly, for the experiment, on day 1 the initial MICs of all test agents were determined using routine MIC experiment protocol as described earlier. Next day, bacterial cells (100 μL) from the wells with concentrations 2–4 fold less than the MIC value for each test agent were used to set up fresh mid-log phase cultures in MHB medium for setting up the MIC plate. This was repeated for a total of 17 sub-lethal treatments with each antimicrobial agent. For every passage, corresponding glycerol stocks (15% v/v) were made for each culture and were kept at −80 °C for future use.

[5] = test system: 48 h mature MRSA ATCC 33591 biofilms; assay: 48 h mature biofilm, confocal laser scanning microscopy (Live/Dead); format: cell-based, Staphylococcus aureus; conditions: 24 h treatment at 20 × MIC (S-7 226 μg/mL, S-8 28 μg/mL, VAN 28 μg/mL), untreated 22 μm
Method: For the experiment, a protocol as described previously was used with slight modifications[24],[72]. Briefly, stationary phase MRSA ATCC 33591 culture ~10^5 CFU/mL in TSB medium (supplemented with 0.25% glucose and 0.5% NaCl) was added to the well of an 8-well chamber slide (200 μL). The slide was incubated at 37 °C without shaking for 24 h. After 24 h, the medium was discarded and the biofilm was washed with PBS once (10 mM sodium phosphate, 150 mM NaCl, pH 7.3). […] After 48 h (24 h + 24 h), the planktonic cells were removed and the biofilms were washed with PBS once. To the wells, 200 μL of PBS containing BacLight Live/Dead viability stain [SYTO9 (green fluorescence) and propidium iodide (PI) (red fluorescence) in equal volume] was added and the chamber slides were incubated at room temperature for 15 min in dark. After 15 min, the stain was removed and biofilms were washed with PBS once. To fix the biofilms, 200 μL of neutral buffered formalin (10% in PBS) was added to each well and the slides were kept at room temperature in dark for 30 min. After fixation, the biofilms were washed once, the chamber was removed and a cover slip was placed over the slide. The biofilms were viewed with an Olympus FluoView^TM FV1000 confocal laser scanning microscope (2D and z-stacking). […] For each sample, the biofilms thickness was also determined using z-scanning confocal microscopy. […]

[6] = test system: 48 h mature MRSA ATCC 33591 biofilms; assay: Cell viability of 48 h mature biofilm embedded cells; format: cell-based, Staphylococcus aureus; conditions: 24 h treatment at 20 × MIC, mean ± S.D., two experiments, untreated 9.31 ± 0.11
Method: For enumeration of cells after 48 h incubation, the medium was aspirated and the biofilms were washed with PBS once. Then 200 μL PBS was added to each well of the chamber slide and the chambers were thoroughly scraped with a pipette tip. The bacterial suspension obtained was plated on BHI agar after dilution in PBS as described above. The resulting CFU/mL from two different days were counted and plotted as mean ± S.D.

CN[C@H](CC(C)C)C(=O)N[C@H]1C(=O)N[C@@H](CC(N)=O)C(=O)N[C@H]2C(=O)N[C@H]3C(=O)N[C@H](C(=O)N[C@H](C(=O)O)c4cc(O)cc(O)c4-c4cc3ccc4O)[C@H](O)c3ccc(c(Cl)c3)Oc3cc2cc(c3O[C@@H]2O[C@H](CO)[C@@H](O)[C@H](O)[C@H]2O[C@H]2C[C@](C)(N)[C@H](O)[C@H](C)O2)Oc2ccc(cc2Cl)[C@H]1O [VAN, vancomycin]
MIC [1]: 1.4 µg/mL (≈ 0.966 µM)
MIC ([2]; after 3 h pre-incubation at 37 °C with fetal bovine serum (50%, v/v), inoculum 2–5 × 10^5 CFU/mL, repeated on two days): 1.4 µg/mL (≈ 0.966 µM)
MIC ([2]; after 3 h pre-incubation at 37 °C with mice plasma (50%, v/v), inoculum 2–5 × 10^5 CFU/mL, repeated on two days): 1.4 µg/mL (≈ 0.966 µM)
MIC ([2]; initial inoculum 10^7 CFU/mL, mid-log phase): 2.8 µg/mL (≈ 1.93 µM)
% calcein leakage ([3]; at 4 × MIC, 2 min incubation): did not cause any leakage
% calcein leakage ([3]; at 4 × MIC, 2 h incubation): 11.9 ± 9.2%
% calcein leakage ([3]; at MIC, 2 min incubation): 1.6 ± 2.3%
fold increase in MIC [4]: 8 fold
biofilm thickness [5]: 14 μm
number of surviving cells [6]: 9.08 ± 0.11 log CFU/mL
